Assay results reported in the NIST ThermoML archive (doi:10.1021/je100715x).
± gives the expanded uncertainty stated by the source.

What was measured:
[1] = refractive index (Na D-line) (dimensionless); xn = mol fraction of the nth substance listed; settings: 101 kPa, Liquid, Standard Abbe refractometry
[2] = xn = mol fraction of the nth substance listed; settings: 101 kPa, Liquid; for viscosity: Capillary tube (Ostwald / Ubbelohde) method; for mass density: Vibrating tube method

CCOC(=O)C(=O)OCC [diethyl ethanedioate] + O=C1CCCCC1
Settings | mass density, 303.15 K [kg/m3] | mass density, 308.15 K [kg/m3] | mass density, 313.15 K [kg/m3] | refractive index, 303.15 K | refractive index, 308.15 K | refractive index, 313.15 K | viscosity, 303.15 K [mPa·s] | viscosity, 308.15 K [mPa·s] | viscosity, 313.15 K [mPa·s]
[1], x1 = 0.0784 | – | – | – | 1.4429 ± 0.0004 | 1.4406 ± 0.0004 | 1.4388 ± 0.0004 | – | – | –
[1], x1 = 0.1495 | – | – | – | 1.4399 ± 0.0004 | 1.4376 ± 0.0004 | 1.4359 ± 0.0004 | – | – | –
[1], x1 = 0.2501 | – | – | – | 1.4359 ± 0.0004 | 1.434 ± 0.0004 | 1.4321 ± 0.0004 | – | – | –
[1], x1 = 0.3443 | – | – | – | 1.4323 ± 0.0004 | 1.4307 ± 0.0004 | 1.4287 ± 0.0004 | – | – | –
[1], x1 = 0.4324 | – | – | – | 1.4287 ± 0.0004 | 1.4273 ± 0.0004 | 1.4252 ± 0.0004 | – | – | –
[1], x1 = 0.5507 | – | – | – | 1.4239 ± 0.0004 | 1.4223 ± 0.0004 | 1.4204 ± 0.0004 | – | – | –
[1], x1 = 0.6755 | – | – | – | 1.4186 ± 0.0004 | 1.4168 ± 0.0004 | 1.4152 ± 0.0004 | – | – | –
[1], x1 = 0.7601 | – | – | – | 1.4154 ± 0.0004 | 1.4133 ± 0.0004 | 1.4116 ± 0.0004 | – | – | –
[1], x1 = 0.8756 | – | – | – | 1.4108 ± 0.0004 | 1.4088 ± 0.0004 | 1.4071 ± 0.0004 | – | – | –
[1], x1 = 0.9502 | – | – | – | 1.4081 ± 0.0004 | 1.4059 ± 0.0004 | 1.4043 ± 0.0004 | – | – | –
[2], x1 = 0.0784 | 950.2 ± 0.4 | 945.1 ± 0.4 | 940.1 ± 0.4 | – | – | – | 1.777 ± 0.023 | 1.595 ± 0.021 | 1.466 ± 0.019
[2], x1 = 0.1495 | 961 ± 0.4 | 955.8 ± 0.4 | 950.6 ± 0.4 | – | – | – | 1.737 ± 0.023 | 1.556 ± 0.02 | 1.416 ± 0.018
[2], x1 = 0.2501 | 975.4 ± 0.4 | 970.3 ± 0.4 | 964.9 ± 0.4 | – | – | – | 1.682 ± 0.022 | 1.5 ± 0.02 | 1.36 ± 0.018
[2], x1 = 0.3443 | 988.4 ± 0.4 | 983.1 ± 0.4 | 977.7 ± 0.4 | – | – | – | 1.637 ± 0.022 | 1.461 ± 0.019 | 1.325 ± 0.017
[2], x1 = 0.4324 | 1000 ± 0.4 | 994.7 ± 0.4 | 989.2 ± 0.4 | – | – | – | 1.609 ± 0.021 | 1.435 ± 0.019 | 1.304 ± 0.017
[2], x1 = 0.5507 | 1015.1 ± 0.4 | 1009.6 ± 0.4 | 1004 ± 0.4 | – | – | – | 1.584 ± 0.021 | 1.415 ± 0.019 | 1.285 ± 0.017
[2], x1 = 0.6755 | 1030.3 ± 0.4 | 1024.7 ± 0.4 | 1019 ± 0.4 | – | – | – | 1.575 ± 0.021 | 1.404 ± 0.018 | 1.276 ± 0.017
[2], x1 = 0.7601 | 1040.2 ± 0.4 | 1034.5 ± 0.4 | 1028.7 ± 0.4 | – | – | – | 1.581 ± 0.021 | 1.407 ± 0.018 | 1.284 ± 0.017
[2], x1 = 0.8756 | 1053.1 ± 0.4 | 1047.4 ± 0.4 | 1041.4 ± 0.4 | – | – | – | 1.606 ± 0.021 | 1.437 ± 0.019 | 1.329 ± 0.017
[2], x1 = 0.9502 | 1061 ± 0.4 | 1055.3 ± 0.4 | 1049.3 ± 0.4 | – | – | – | 1.62 ± 0.021 | 1.464 ± 0.019 | 1.351 ± 0.017
